Experimental data taken from patent US20190231730A1, “TREATMENT OF A DISEASE MEDIATED BY ARACHIDONIC ACID OR AN EICOSANOID” (priority 2016, published 2019).

What was measured:
[1] = tested on: patients with Ankylosing Spondylitis; conditions: three patients
[2] = tested on: patients suffering from Cystic Fibrosis; conditions: six patients; topical under arm pits, once monthly; 0.01-1 microgram in DMSO
Method: (§1) The formulation was applied under arm pits (topically) to patients suffering from Cystic Fibrosis, psoriasis, ulcerative colitis and Ankylosing Spondylitis. Six patients suffering from Cystic fibrosis were administered this formulation once monthly.

patient with psoriasis = assay: Topical formulation in patients with psoriasis; conditions: approximately 30 patients
Method: as §1

[3] = tested on: patients with ulcerative colitis; conditions: one patient
[4] = tested on: oesophageal adenocarcinoma; conditions: rat model; LTA4 hydrolase inhibitor, inhibition of LTB4 synthesis; cited from earlier work

Structure (SMILES)	symptoms of Ankylosing Spondylitis [1]	clinical benefit and symptoms in Cystic Fibrosis [2]	duration of symptom-free state in psoriasis (patient with psoriasis)	healing of psoriatic lesions on skin (patient with psoriasis)	decrease in all ulcerative mediations [3] [%]	reversal of symptomatology in ulcerative colitis [3] [%]	burden of oesophageal adenocarcinoma [4]
CCCCC/C=C\C/C=C\C/C=C\CC#CCCCC(=O)O [5,6-dehydro arachidonic acid]	helped them with the symptoms	significant clinical benefit and reduction of symptoms	remained symptom free for years	completely healed their psoriatic lesions	100	100	–
CC(C)C[C@H](NC(=O)[C@@H](O)[C@H](N)Cc1ccccc1)C(=O)O [bestatin]	–	–	–	–	–	–	reduced the burden of oesophageal adenocarcinoma
